Test system: rabbit skeletal myofibrils (fast skeletal myofibrils)
Test: Activation of fast skeletal myofibrils (PUMA assay, PK/LDH-coupled ATPase at pCa25)
Assay type: biochemical
Conditions: AC1.4 determined according to the procedure of Example 39; reported as class symbols
Method: Preparation of Fast Skeletal Myofibrils.
Rabbit skeletal myofibrils were prepared based upon the method of Herrmann et al. (Biochem. 32(28):7255-7263(1993). Myofibrils were prepared from rabbit psoas muscle purchased from Pel-Freez Biologicals (Arkansas) within 2 days of ordering, stored on ice. Minced muscle was homogenized in 10 volumes of ice-cold “standard” buffer (50 mM Tris, pH 7.4, 0.1M potassium acetate, 5 mM KCl, 2 mM DTT, 0.2 mM PMSF, 10 μM leupeptin, 5 μM pepstatin, and 0.5 mM sodium azide) containing 5 mM EDTA and 0.5% Triton X-100 using an Omni-Macro homogenizer. Myofibrils were recovered by low speed centrifugation (3000 rpm for 10 minutes) and washed 2 times in the Triton X-100 containing buffer to ensure removal of cellular membrane. Following the Triton washes, myofibrils were washed 3 times in “standard” buffer containing 2 mM magnesium acetate. A final wash in assay buffer (12 mM PIPES, pH 6.8, 60 mM KCl, 1 mM DTT) was performed and brought to 10% sucrose for flash freezing in liquid nitrogen and storage at −80° C.
Activation of Fast Skeletal Myofibrils.
Fast fiber activators were identified by measuring the enzymatic activity of muscle myofibril preparations using the proprietary PUMA™ (see, e.g., U.S. Pat. Nos. 6,410,254, 6,743,599, 7,202,051, and 7,378,254) assay system. Myofibril preparations consisted of rabbit skeletal muscle (approximately 90% fast fibers) that had been mechanically homogenized and washed with a detergent (triton X-100) to remove cellular membranes. This preparation retained all of the sarcomeric components in a native conformation and the enzymatic activity was still regulated by calcium. Compounds were tested using a myofibril suspension and a level of calcium sufficient to increase enzymatic activity of the myofibrils to 25% of their maximal rate (termed pCa25). Enzymatic activity was tracked via a pyruvate kinase and lactate dehydrogenase-coupled enzyme system. This assay regenerates myosin-produced ADP into ATP by oxidizing NADH, producing an absorbance change at 340 nm. The buffering system was 12 mM Pipes, 2 mM MgCl2, 1 mM DTT at pH 6.8 (PM12 buffer).
Using procedures similar to those described herein, utilizing reagents and intermediates commercially available (e.g., Sigma-Aldrich, St. Louis, Mo.) or readily synthesized by one of skill in the art, the compounds in Table 2 were synthesized, characterized and tested. AC1.4 values were determined according to the procedure described in Example 39, and the reported median AC1.4 values are as follows: A=<1 uM; B=1-10 uM; C=10-20 uM; D=>20 uM.

| Mean AC1.4 | SMILES |
| --- | --- |
| A (A=<1 uM) | N#Cc1ccnc(C2(CNc3ccc(-c4ccc5[nH]ncc5c4)nn3)CCC2)c1 |
| C (C=10-20 uM) | NC(=O)c1ccnc(C2(CNc3ccc(-c4ccc5[nH]ncc5c4)nn3)CCC2)c1 |
| D (D=>20 uM) | Oc1ccnc(C2(CNc3ccc(-c4ccc5[nH]ncc5c4)nn3)CCC2)c1 |
| D (D=>20 uM) | Oc1ccnc(C2(CNc3ccc(-c4ccc5cn[nH]c5c4)nn3)CCC2)c1 |
| D (D=>20 uM) | NC(=O)c1ccnc(C2(CNc3ccc(-c4cc(C(N)=O)ccc4F)nn3)CCC2)c1 |
| D (D=>20 uM) | NC(=O)c1cccc(-c2ccc(NCC3(c4cc(C(N)=O)ccn4)CCC3)nn2)c1 |
| C (C=10-20 uM) | CC(C)(CNc1ccc(-c2ccc3c(=O)[nH]c(N)nc3c2)nn1)c1ccc(F)cc1 |
| B (B=1-10 uM) | NCC(=O)Nc1n[nH]c2ccc(-c3ccc(NCC4(c5ncccc5F)CCC4)nn3)cc12 |
| B (B=1-10 uM) | O=C(O)c1cc(-c2ccc(NCC3(c4ncccc4F)CCC3)nn2)ccc1F |
| A (A=<1 uM) | NC(=O)c1cccc(-c2ccc(NCC3(c4ccccn4)CCC3)nn2)c1 |
| A (A=<1 uM) | NS(=O)(=O)c1cccc(-c2ccc(NCC3(c4ncccc4F)CCC3)nn2)c1 |
| B (B=1-10 uM) | Cc1ccc(C(N)=O)cc1-c1ccc(NCC2(c3ncccc3F)CCC2)nn1 |
| B (B=1-10 uM) | N#Cc1ccnc(C2(CNc3ccc(-c4cccc(C(N)=O)c4)nn3)CCC2)c1 |
| B (B=1-10 uM) | N#Cc1ccnc(C2(CNc3ccc(-c4cc(C(N)=O)ccc4F)nn3)CCC2)c1 |
| A (A=<1 uM) | NC(=O)c1cccc(-c2ccc(NCC3(c4ccc(F)cc4)CCC3)nn2)c1 |
| B (B=1-10 uM) | N#Cc1cccc(C2(CNc3ccc(-c4cccc(C(N)=O)c4)nn3)CCC2)n1 |
| D (D=>20 uM) | NC(=O)c1cccc(-c2ccc(NCC3(c4cnccn4)CCC3)nn2)c1 |
| B (B=1-10 uM) | NC(=O)n1nc(N)c2cc(-c3ccc(NCC4(c5ncccc5F)CCC4)nn3)ccc21 |

| Mean AC1.4 | SMILES |
| --- | --- |
| B (B=1-10 uM) | COc1cccnc1C1(CNc2ccc(-c3cc(C(N)=O)ccc3F)nn2)CCC1 |
| D (D=>20 uM) | NC(=O)c1ccc(F)c(-c2ccc(NCC3(c4cc(O)ccn4)CCC3)nn2)c1 |
| B (B=1-10 uM) | COc1ccnc(C2(CNc3ccc(-c4cc(C(N)=O)ccc4F)nn3)CCC2)c1 |
| D (D=>20 uM) | COc1ccc(C2(CNc3ccc(-c4cc(C(N)=O)ccc4F)nn3)CCC2)nc1 |
| B (B=1-10 uM) | O=c1[nH]c2ccc(-c3ccc(NCC4(c5ncccc5F)CCC4)nn3)cc2[nH]1 |
| D (D=>20 uM) | CC1(C)C(=O)Nc2cc(-c3ccc(NCC4(c5ncccc5F)CCC4)nn3)ccc21 |
| B (B=1-10 uM) | N#Cc1ccc(C2(CNc3ccc(-c4ccc5[nH]ncc5c4)nn3)CCC2)nc1 |
| B (B=1-10 uM) | NC(=O)c1cccc(C2(CNc3ccc(-c4ccc5[nH]ncc5c4)nn3)CCC2)n1 |
| B (B=1-10 uM) | N#Cc1cccc(C2(CNc3ccc(-c4ccc5[nH]ncc5c4)nn3)CCC2)n1 |
| D (D=>20 uM) | NC(=O)c1cccc(-c2ccc(NCC3(c4cccc(C(N)=O)n4)CCC3)nn2)c1 |
| B (B=1-10 uM) | CC(=O)Nc1n[nH]c2ccc(-c3ccc(NCC4(c5ncccc5F)CCC4)nn3)cc12 |
| B (B=1-10 uM) | CNC(=O)c1cc(-c2ccc(NCC3(c4ncccc4F)CCC3)nn2)ccc1F |
| B (B=1-10 uM) | CS(=O)(=O)Nc1cccc(-c2ccc(NCC3(c4ncccc4F)CCC3)nn2)c1 |
| B (B=1-10 uM) | CS(=O)(=O)Nc1ccc(-c2ccc(NCC3(c4ncccc4F)CCC3)nn2)cc1 |
| A (A=<1 uM) | CS(=O)(=O)Nc1n[nH]c2ccc(-c3ccc(NCC4(c5ncccc5F)CCC4)nn3)cc12 |
| A (A=<1 uM) | NC(=O)Nc1cccc(-c2ccc(NCC3(c4ncccc4F)CCC3)nn2)c1 |
| B (B=1-10 uM) | N=C(N)Nc1cccc(-c2ccc(NCC3(c4ncccc4F)CCC3)nn2)c1 |
| B (B=1-10 uM) | N=C(N)Nc1ccc(-c2ccc(NCC3(c4ncccc4F)CCC3)nn2)cc1 |
